Test results taken from PubChem BioAssay (NCI).
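Values below derive from 48-hour exposures of cells grown in 96-well plates, with endpoints linearly interpolated between the two concentrations bracketing the appropriate inhibition level. At the GI50, growth is halved. TGI denotes the concentration required for complete inhibition of growth.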

How the values were obtained:
Experiment in all cases: NCI-60 cell line screen, 48 h
BT-549 breast = tested on: BT-549 breast
CAKI-1 renal = tested on: CAKI-1 renal
OVCAR-3 ovarian = tested on: OVCAR-3 ovarian
OVCAR-5 ovarian = tested on: OVCAR-5 ovarian
PC-3 prostate = tested on: PC-3 prostate
SF-268 CNS = tested on: SF-268 CNS
SF-539 CNS = tested on: SF-539 CNS
SR leukemia = tested on: SR leukemia
SW-620 colon = tested on: SW-620 colon
UACC-257 melanoma = tested on: UACC-257 melanoma

Row | Structure (SMILES) | GI50 (BT-549 breast) [µM] | TGI (BT-549 breast) [µM] | GI50 (CAKI-1 renal) [µM] | TGI (CAKI-1 renal) [µM] | GI50 (OVCAR-3 ovarian) [µM] | TGI (OVCAR-3 ovarian) [µM] | GI50 (OVCAR-5 ovarian) [µM] | TGI (OVCAR-5 ovarian) [µM] | GI50 (PC-3 prostate) [µM] | TGI (PC-3 prostate) [µM] | GI50 (SF-268 CNS) [µM] | TGI (SF-268 CNS) [µM] | GI50 (SF-539 CNS) [µM] | TGI (SF-539 CNS) [µM] | GI50 (SR leukemia) [µM] | TGI (SR leukemia) [µM] | GI50 (SW-620 colon) [µM] | TGI (SW-620 colon) [µM] | GI50 (UACC-257 melanoma) [µM] | TGI (UACC-257 melanoma) [µM]
1 | O=C(NNS(=O)(=O)c1ccc(F)cc1)c1cccnc1Nc1ccc(Cl)cc1Cl | 36 | > 100 | 31.2 | > 100 | 29.7 | 94.5 | 52.2 | > 100 | 14.8 | 32.1 | 45.2 | > 100 | 26 | 73.7 | 22.9 | 67.6 | 29.1 | > 100 | 11.8 | 51.9
2 | O=C(O)c1cc(Cc2ccc(O)c(C(=O)O)c2)ccc1O (tested in a mixture with another compound) | 3.13 | 16.6 | 1.36 | 3.69 | 9.75 | 22.3 | 11.5 | 27.1 | 3.58 | 19.2 | 7.88 | 26.1 | 11.4 | 26.6 | 1.41 | 8.67 | 3.55 | 23.5 | 3.34 | 7.77
3 | COC(=O)C1(C2CC/C(C)=C/CC/C(C)=C/CC[C@@]3(C)O[C@@H]3C2)CC1 (stereo partly drawn) | > 100 | > 100 | 32.1 | > 85 | 62.9 | > 100 | > 100 | > 100 | 36.5 | > 100 | > 100 | > 100 | 35.2 | > 69.2 | 12.4 | > 51.9 | 40 | > 100 | > 83.7 | > 100
4 | CC(=O)OC1CCC2(C)C(=CCC3C4CCC5(OC6CC(C)CN(C(C)=O)C6C5C)C(C)=C4C(=O)C32)C1 (stereo not drawn) |  | 28.6 |  | 75.1 |  | 72.6 |  | 46.6 |  | 28.6 |  | 31.4 |  | 39.9 |  | 40.8 |  | > 100 |  | 27.3
5 | CO[C@@]12C[C@H]3[C@@H]([C@@H](O)[C@@H](OC(=O)/C=C/c4ccccc4)[C@@]4(O)C(C)(C)CCC[C@]34C)[C@@H](C)C1=CC(=O)O2 | 11.3 | 27.9 | 6.76 | 30.8 | 2.01 | 11.6 | 17.1 | 48 | 5.13 | 29.2 | 6.78 | 72.8 | 12.4 | 27.4 | > 100 | > 100 | 12.2 | 31.5 | 14.4 | 32.1
6 | CCOC(=O)N[C@H]1CCc2c(Br)c(OC)c(OC)c(OC)c2-c2ccc(SC)c(=O)cc21 | 0.0115 | 8.97 | < 0.0228 | 19.6 | < 0.01 |  | 0.0357 | 25.6 | < 0.01 | > 44.5 | 0.0125 | 15 | < 0.01 | < 0.0106 | < 0.01 | > 37.3 | < 0.01 | 16.7 | 8.64 | 45.2
7 | COc1ccc(/C=C(/C)[N+](=O)[O-])cc1 |  | 6.91 |  | 6.07 |  | 3.26 |  | 9.47 |  | 5.04 |  | 9.42 |  | 3.68 |  | 3.56 |  | > 20.6 |  | 3.08
8 | NC(=S)N/N=C\c1nccc2c(N)cccc12 | 0.836 | > 100 | 0.243 | 1.01 | 0.306 | > 100 | 1.14 | > 100 | 0.452 | > 100 | 0.242 |  | 0.146 | 0.757 | 0.0398 | > 35.8 | 0.476 | > 100 | 0.624 | 9.44
